Assay results published in the kinase profiling compilation of Christmann-Franck et al. (2016).

Tests used:
Experiment in all cases: KINOMEscan competition binding
Settings in all cases: compound 10.0 µM
[1] = test system: FGFR3 (human), P22607 [G697C]
BLK (human) = BLK (human) (UniProt P51451)
NLK (human) = NLK (human) (UniProt Q9UBE8)
CDK17 (human) = CDK17 (human) (UniProt Q00537)
MAP4K4 (human) = MAP4K4 (human) (UniProt O95819)
MAPK11 (human) = MAPK11 (human) (UniProt Q15759)
[2] = test system: EGFR (human), P00533 [L858R]
EPHA2 (human) = EPHA2 (human) (UniProt P29317)
TXK (human) = TXK (human) (UniProt P42681)
CAMK1D (human) = CAMK1D (human) (UniProt Q8IU85)
[3] = target: TYK2 JH1 catalytic (human) (UniProt P29597)
PRKAA1 (human) = PRKAA1 (human) (UniProt Q13131)
PTK6 (human) = PTK6 (human) (UniProt Q13882)
FGR (human) = FGR (human) (UniProt P09769)
[4] = test system: FLT3 (human), P36888 [D835H]
IKBKB (human) = IKBKB (human) (UniProt O14920)
STK10 (human) = STK10 (human) (UniProt O94804)
EPHA3 (human) = EPHA3 (human) (UniProt P29320)
[5] = test system: EGFR (human), P00533 [L861Q]
[6] = test system: KIT (human), P10721 [V559D/T670I]
TAOK1 (human) = TAOK1 (human) (UniProt Q7L7X3)
Sequence of TAOK1 (human) (Q7L7X3 whole entry, looked up): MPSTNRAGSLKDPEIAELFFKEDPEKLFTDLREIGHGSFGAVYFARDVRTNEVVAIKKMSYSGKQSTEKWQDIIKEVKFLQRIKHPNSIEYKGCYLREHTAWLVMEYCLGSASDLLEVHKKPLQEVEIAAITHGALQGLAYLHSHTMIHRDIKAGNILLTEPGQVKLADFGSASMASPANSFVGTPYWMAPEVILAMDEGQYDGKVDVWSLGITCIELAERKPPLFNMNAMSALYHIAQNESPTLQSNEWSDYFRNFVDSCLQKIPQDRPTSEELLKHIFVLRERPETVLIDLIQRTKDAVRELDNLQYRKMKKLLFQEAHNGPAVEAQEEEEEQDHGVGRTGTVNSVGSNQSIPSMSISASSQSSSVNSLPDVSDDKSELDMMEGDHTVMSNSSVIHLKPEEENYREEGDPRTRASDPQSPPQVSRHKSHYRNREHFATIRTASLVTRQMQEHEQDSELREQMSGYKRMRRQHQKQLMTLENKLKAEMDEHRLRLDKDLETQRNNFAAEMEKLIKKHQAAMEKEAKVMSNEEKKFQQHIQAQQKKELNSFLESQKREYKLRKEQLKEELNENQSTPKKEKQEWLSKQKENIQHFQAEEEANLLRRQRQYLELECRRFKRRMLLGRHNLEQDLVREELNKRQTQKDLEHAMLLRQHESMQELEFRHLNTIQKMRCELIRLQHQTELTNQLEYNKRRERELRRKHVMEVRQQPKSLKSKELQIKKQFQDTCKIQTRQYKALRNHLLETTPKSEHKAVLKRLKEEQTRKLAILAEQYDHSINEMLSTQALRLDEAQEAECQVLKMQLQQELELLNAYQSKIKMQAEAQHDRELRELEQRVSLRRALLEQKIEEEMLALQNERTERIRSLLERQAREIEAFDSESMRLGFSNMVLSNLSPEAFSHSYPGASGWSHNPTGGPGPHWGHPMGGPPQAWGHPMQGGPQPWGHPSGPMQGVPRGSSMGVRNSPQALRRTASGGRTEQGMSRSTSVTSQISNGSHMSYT

[7] = test system: EGFR (human), P00533 [747-751 del / S ins]
[8] = test system: FLT3 (human), P36888 [K663Q]
MAPK12 (human) = MAPK12 (human) (UniProt P53778)
Sequence of MAPK12 (human) (P53778 whole entry, looked up): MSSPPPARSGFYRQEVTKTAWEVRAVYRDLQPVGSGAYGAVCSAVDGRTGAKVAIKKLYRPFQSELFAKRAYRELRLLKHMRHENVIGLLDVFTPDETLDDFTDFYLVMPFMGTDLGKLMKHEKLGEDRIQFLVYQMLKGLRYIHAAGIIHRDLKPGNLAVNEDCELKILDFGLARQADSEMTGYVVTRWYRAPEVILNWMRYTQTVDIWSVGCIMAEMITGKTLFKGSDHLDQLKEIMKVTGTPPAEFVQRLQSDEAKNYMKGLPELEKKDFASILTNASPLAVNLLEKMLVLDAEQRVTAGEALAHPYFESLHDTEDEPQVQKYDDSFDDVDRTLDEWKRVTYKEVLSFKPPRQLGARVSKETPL

ULK3 (human) = ULK3 (human) (UniProt Q6PHR2)
MKNK2 (human) = MKNK2 (human) (UniProt Q9HBH9)
RET (human) = RET (human) (UniProt P07949)
Sequence of RET (human) (P07949 whole entry, looked up): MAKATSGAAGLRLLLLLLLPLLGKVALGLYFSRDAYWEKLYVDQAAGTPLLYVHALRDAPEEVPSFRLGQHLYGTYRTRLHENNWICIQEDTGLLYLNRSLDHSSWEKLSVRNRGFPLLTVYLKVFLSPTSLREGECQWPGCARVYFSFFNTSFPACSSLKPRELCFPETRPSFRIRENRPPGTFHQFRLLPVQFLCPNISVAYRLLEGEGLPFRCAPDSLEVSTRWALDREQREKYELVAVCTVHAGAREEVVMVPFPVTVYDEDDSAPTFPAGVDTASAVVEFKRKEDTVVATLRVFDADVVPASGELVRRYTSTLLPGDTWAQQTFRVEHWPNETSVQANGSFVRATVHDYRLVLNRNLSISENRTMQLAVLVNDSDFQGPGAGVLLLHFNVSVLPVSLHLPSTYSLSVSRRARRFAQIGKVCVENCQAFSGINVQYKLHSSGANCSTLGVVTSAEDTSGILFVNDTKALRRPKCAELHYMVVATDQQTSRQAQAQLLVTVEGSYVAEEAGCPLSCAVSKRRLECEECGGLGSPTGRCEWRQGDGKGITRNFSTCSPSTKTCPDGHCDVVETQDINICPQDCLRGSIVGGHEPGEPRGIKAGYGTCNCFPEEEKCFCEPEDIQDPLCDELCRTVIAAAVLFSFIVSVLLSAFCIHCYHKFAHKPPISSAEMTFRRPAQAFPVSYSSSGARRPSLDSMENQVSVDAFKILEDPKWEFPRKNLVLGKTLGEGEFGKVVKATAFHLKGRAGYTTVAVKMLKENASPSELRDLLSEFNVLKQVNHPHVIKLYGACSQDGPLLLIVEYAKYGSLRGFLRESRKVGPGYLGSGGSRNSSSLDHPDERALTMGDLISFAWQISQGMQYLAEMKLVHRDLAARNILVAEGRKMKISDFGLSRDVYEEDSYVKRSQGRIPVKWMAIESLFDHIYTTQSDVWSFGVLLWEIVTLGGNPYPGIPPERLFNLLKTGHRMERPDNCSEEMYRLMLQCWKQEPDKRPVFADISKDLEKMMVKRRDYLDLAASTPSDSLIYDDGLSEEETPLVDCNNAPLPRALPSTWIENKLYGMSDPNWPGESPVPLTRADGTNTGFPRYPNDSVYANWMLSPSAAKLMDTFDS

ABL1 (human) = ABL1 (human) (UniProt P00519)
PTK2B (human) = PTK2B (human) (UniProt Q14289)
Sequence of PTK2B (human) (Q14289 whole entry, looked up): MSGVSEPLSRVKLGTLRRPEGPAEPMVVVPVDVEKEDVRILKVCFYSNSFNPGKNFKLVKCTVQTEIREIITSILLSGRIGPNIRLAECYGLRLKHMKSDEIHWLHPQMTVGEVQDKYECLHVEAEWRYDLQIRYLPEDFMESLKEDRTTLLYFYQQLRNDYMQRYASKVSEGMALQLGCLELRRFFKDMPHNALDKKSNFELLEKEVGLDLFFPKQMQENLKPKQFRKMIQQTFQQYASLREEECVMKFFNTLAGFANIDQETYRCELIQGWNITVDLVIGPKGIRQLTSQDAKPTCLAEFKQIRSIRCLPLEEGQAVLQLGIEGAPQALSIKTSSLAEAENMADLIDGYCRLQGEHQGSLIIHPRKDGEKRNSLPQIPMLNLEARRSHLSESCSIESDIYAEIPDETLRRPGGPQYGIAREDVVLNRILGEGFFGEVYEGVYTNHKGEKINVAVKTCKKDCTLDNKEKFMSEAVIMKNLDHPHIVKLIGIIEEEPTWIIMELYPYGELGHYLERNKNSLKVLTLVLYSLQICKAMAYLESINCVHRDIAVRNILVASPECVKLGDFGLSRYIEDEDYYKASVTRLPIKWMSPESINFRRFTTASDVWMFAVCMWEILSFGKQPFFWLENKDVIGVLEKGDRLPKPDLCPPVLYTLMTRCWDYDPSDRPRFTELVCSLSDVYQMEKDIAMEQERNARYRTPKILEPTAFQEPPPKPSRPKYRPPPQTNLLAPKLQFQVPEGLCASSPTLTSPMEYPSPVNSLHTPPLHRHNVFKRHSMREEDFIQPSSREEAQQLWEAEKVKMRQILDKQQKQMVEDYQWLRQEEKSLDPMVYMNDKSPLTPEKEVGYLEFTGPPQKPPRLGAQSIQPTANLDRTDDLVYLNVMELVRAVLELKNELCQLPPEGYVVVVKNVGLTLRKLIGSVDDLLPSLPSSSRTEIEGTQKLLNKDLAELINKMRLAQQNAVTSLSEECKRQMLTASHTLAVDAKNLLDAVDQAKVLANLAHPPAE

MAP4K1 (human) = MAP4K1 (human) (UniProt Q92918)
FYN (human) = FYN (human) (UniProt P06241)
ANKK1 (human) = ANKK1 (human) (UniProt Q8NFD2)
[9] = test system: ABL1 (human), P00519 [Q252H]
FGFR1 (human) = FGFR1 (human) (UniProt P11362)
PDGFRA (human) = PDGFRA (human) (UniProt P16234)
LCK (human) = LCK (human) (UniProt P06239)
PDGFRB (human) = PDGFRB (human) (UniProt P09619)
CDK7 (human) = CDK7 (human) (UniProt P50613)
MAPK13 (human) = MAPK13 (human) (UniProt O15264)
Sequence of MAPK13 (human) (O15264 whole entry, looked up): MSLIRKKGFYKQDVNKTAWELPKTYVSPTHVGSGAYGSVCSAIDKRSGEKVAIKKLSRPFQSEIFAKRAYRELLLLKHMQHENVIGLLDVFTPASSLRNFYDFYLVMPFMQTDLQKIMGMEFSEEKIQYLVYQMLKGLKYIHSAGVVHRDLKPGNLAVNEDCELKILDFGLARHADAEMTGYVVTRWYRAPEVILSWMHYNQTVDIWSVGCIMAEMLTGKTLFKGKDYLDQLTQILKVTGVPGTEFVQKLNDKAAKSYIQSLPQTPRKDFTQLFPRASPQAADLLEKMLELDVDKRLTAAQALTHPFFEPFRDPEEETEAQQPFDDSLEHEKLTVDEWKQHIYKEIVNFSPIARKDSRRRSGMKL

GAK (human) = GAK (human) (UniProt O14976)
[10] = test system: FLT3 (human), P36888 [ITD]

Sequence of MAPK11 (human) (Q15759 whole entry, looked up): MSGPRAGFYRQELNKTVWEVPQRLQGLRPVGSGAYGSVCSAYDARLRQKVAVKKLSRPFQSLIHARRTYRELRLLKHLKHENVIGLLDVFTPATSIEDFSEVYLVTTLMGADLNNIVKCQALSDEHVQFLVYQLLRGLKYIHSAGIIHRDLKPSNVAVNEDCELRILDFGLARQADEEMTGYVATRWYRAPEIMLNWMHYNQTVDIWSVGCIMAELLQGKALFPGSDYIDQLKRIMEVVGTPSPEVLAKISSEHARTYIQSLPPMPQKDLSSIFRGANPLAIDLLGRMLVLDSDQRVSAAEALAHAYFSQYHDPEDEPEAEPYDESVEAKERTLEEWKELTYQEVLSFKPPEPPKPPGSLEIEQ
Sequence of FGFR3 (human), P22607 [G697C] (P22607 whole entry G697C, looked up): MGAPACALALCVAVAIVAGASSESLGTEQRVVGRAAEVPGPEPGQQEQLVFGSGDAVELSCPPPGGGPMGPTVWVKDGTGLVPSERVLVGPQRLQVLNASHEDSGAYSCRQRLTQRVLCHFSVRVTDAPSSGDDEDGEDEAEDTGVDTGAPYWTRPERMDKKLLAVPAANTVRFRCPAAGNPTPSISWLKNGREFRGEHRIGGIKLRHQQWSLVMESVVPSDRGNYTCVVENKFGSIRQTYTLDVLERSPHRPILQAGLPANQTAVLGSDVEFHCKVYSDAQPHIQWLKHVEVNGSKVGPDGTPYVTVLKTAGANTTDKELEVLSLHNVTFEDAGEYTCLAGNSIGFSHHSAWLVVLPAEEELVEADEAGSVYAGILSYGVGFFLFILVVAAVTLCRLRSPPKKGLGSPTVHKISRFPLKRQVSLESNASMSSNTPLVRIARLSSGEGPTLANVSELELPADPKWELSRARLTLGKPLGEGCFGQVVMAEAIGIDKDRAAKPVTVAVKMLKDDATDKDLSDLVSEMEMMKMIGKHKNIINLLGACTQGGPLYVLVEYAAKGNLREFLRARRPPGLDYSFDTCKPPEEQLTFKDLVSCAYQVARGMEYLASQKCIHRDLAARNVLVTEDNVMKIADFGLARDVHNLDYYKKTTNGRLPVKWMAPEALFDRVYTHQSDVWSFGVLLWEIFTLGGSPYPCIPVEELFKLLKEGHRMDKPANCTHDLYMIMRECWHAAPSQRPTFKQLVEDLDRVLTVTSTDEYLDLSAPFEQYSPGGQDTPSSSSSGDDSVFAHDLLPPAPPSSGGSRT

- kinase still bound, per cent of control [1]: 16%
- kinase still bound, per cent of control (BLK (human)): 0.45%
- kinase still bound, per cent of control (NLK (human)): 14%
- residual activity (CDK17 (human)): 0.1%
- kinase still bound, per cent of control (MAP4K4 (human)): 0%
- kinase still bound, per cent of control (MAPK11 (human)): 0%
- kinase still bound, per cent of control [2]: 14%
- kinase still bound, per cent of control (EPHA2 (human)): 3.1%
- kinase still bound, per cent of control (TXK (human)): 12%
- kinase still bound, per cent of control (CAMK1D (human)): 6.2%
- kinase still bound, per cent of control [3]: 0%
- kinase still bound, per cent of control (PRKAA1 (human)): 33%
- kinase still bound, per cent of control (PTK6 (human)): 28%
- kinase still bound, per cent of control (FGR (human)): 1.2%
- kinase still bound, per cent of control [4]: 1.2%
- kinase still bound, per cent of control (IKBKB (human)): 24%
- kinase still bound, per cent of control (STK10 (human)): 0%
- kinase still bound, per cent of control (EPHA3 (human)): 3.4%
- kinase still bound, per cent of control [5]: 15%
- kinase still bound, per cent of control [6]: 0.05%
- kinase still bound, per cent of control (TAOK1 (human)): 3%
- kinase still bound, per cent of control [7]: 1.1%
- kinase still bound, per cent of control [8]: 0%
- kinase still bound, per cent of control (MAPK12 (human)): 0%
- kinase still bound, per cent of control (ULK3 (human)): 0.1%
- kinase still bound, per cent of control (MKNK2 (human)): 4.2%
- kinase still bound, per cent of control (RET (human)): 0%
- kinase still bound, per cent of control (ABL1 (human)): 0.1%
- kinase still bound, per cent of control (PTK2B (human)): 2.1%
- kinase still bound, per cent of control (MAP4K1 (human)): 1.6%
- kinase still bound, per cent of control (FYN (human)): 1.6%
- kinase still bound, per cent of control (ANKK1 (human)): 23%
- kinase still bound, per cent of control [9]: 0.4%
- kinase still bound, per cent of control (FGFR1 (human)): 1.7%
- kinase still bound, per cent of control (PDGFRA (human)): 0.6%
- kinase still bound, per cent of control (LCK (human)): 0.8%
- kinase still bound, per cent of control (PDGFRB (human)): 0%
- residual activity (CDK7 (human)): 2.4%
- kinase still bound, per cent of control (MAPK13 (human)): 0.55%
- kinase still bound, per cent of control (GAK (human)): 31%
- kinase still bound, per cent of control [10]: 0.7%
Compound: CCN1CCN(Cc2ccc(NC(=O)c3ccc(C)c(Oc4ccnc5[nH]ccc45)c3)cc2C(F)(F)F)CC1
